Entries after “also recorded” stand apart in the source; their conditions may differ.
Assays:
[1] = system: RVFV MP12-induced β-catenin transcriptional activity; format: cell-based, human
RVFV MP12-GFP [2] = assay: microbe, parasite or virus in culture; format: cell-based, Rift Valley fever virus; conditions: for inhibition at 10 µM: Rift Valley fever virus, Hepatocyte, read-out: inhibition of RVFV MP12-GFP infection
[3] = system: Wnt3A-induced β-catenin luc reporter expression; format: cell-based, human
RVFV MP12-GFP [4] = format: cell-based, Rift Valley fever virus
VacV = format: cell-based, Vaccinia virus
VSV [5] = format: cell-based, Vesicular Stomatitis virus
[6] = system: cellular models of cancer survival; conditions: preclinical studies; cited from earlier work
RVFV MP12 = format: cell-based, Rift Valley fever virus
wild-type RVFV = format: cell-based, Rift Valley fever virus
CEV = format: cell-based, California encephalitis virus
LCV = format: cell-based, La Crosse virus
RVFV MP12-GFP [7] = format: cell-based, Rift Valley fever virus; remark: listed apart in the source
VSV [8] = format: cell-based, Vesicular Stomatitis virus; remark: listed apart in the source
[9] = system: wild-type RVFV strain ZH-501; format: cell-based, Rift Valley fever virus

Row | Molecule | RVFV MP12-induced β-catenin reporter activity [1] | Wnt3A-induced β-catenin luc reporter activity [3] | RVFV MP12-GFP infection, inhibitor 1 hour prior to and during initial infection, removed after 3 hours (pre-treat) (RVFV MP12-GFP [4]) | RVFV MP12-GFP infection, inhibitor added 1 hpi (post-treat) (RVFV MP12-GFP [4]) | infection of RVFV MP12-GFP (relative percent infection) (RVFV MP12-GFP [2]) | infection of VacV (relative percent infection) (VacV) | infection of VSV (relative percent infection) (VSV [5]) | further results
1 | CO/C1=C\C(C)=C\[C@@H](C)[C@@H](O)[C@@H](C)C/C(C)=C/C=C/[C@H](OC)[C@@H]([C@@H](C)[C@@H](O)[C@H](C)[C@@]2(O)C[C@@H](O)[C@H](C)[C@@H](C(C)C)O2)OC1=O [BAF] | blocked |  |  |  |  |  |  | 
2 | O=C(Nc1cccc2cccnc12)c1ccc(N2C(=O)[C@@H]3[C@H](C2=O)[C@@H]2C=C[C@H]3C2)cc1 [Endo-IWR-1, 4-[(3aR,4S,7R,7aS)-1,3-dioxo-1,3,3a,4,7,7a-hexahydro-2H-4,7-methanoisoindol-2-yl]-N-(quinolin-8-yl)benzamide] | inhibited | inhibited | little to no effect | significantly inhibit |  |  |  | inhibition at 10 µM (RVFV MP12-GFP [2]): > 50%
3 | Cc1cc([N+](=O)[O-])ccc1NS(=O)(=O)c1cc(Cl)ccc1Cl [FH535, 2,5-dichloro-N-(2-methyl-4-nitrophenyl)benzenesulfonamide] | inhibited | inhibited | little to no effect | significantly inhibit | reduced | did not diminish | did not diminish | 
4 | COc1ccc(C2(CNC(=O)c3ccc(NC(=O)c4ccco4)cc3)CCOCC2)cc1 [JW55, N-[4-[[4-(4-methoxyphenyl)oxan-4-yl]methylcarbamoyl]phenyl]furan-2-carboxamide] |  |  |  |  |  |  |  | efficacy in cellular models of cancer survival [6]: demonstrated efficacy
5 | O=C1Nc2ccccc2C12OCC1(CO2)COC2(OC1)C(=O)Nc1ccccc12 (stereo not drawn) [JW67, trispiro[3H-indole-3,2′-[1,3]dioxane-5′,5″-[1,3]dioxane-2″,3′″-[3H]indole]-2,2′″(1H,1′″H)-dione] | inhibited | inhibited | little to no effect | significantly inhibit |  | none of the inhibitors that stabilized the DC affected | none of the inhibitors that stabilized the DC affected | inhibition at 10 µM (RVFV MP12-GFP [2]): > 50%; RVFV MP12 viral titers by plaque assay (RVFV MP12): significant decrease; wild-type RVFV viral titers by plaque assay (wild-type RVFV): significant decrease; also recorded: significantly reduced; CEV infection / viral titers by plaque assay (CEV): significantly reduced; LCV infection / viral titers by plaque assay (LCV): significantly reduced
6 | CN(C)c1ccc(/C=C/c2c(F)cccc2F)cc1 [Wnt XII, (E)-4-(2,6-difluorostyryl)-N,N-dimethylaniline] | inhibited | inhibited | little to no effect | significantly inhibit | reduced | did not diminish | did not diminish | 
7 | O=c1nc(-c2ccc(C(F)(F)F)cc2)[nH]c2c1CSCC2 [XAV939, 2-[4-(trifluoromethyl)phenyl]-1,5,7,8-tetrahydrothiopyrano[4,3-d]pyrimidin-4-one] |  |  |  |  |  |  |  | efficacy in cellular models of cancer survival [6]: demonstrated efficacy
8 | Cc1cc(/C=C2\SC(=O)N(c3ccccc3)C2=O)c(C)n1-c1cccnc1 [iCRT-14, (5Z)-5-[(2,5-dimethyl-1-pyridin-3-ylpyrrol-3-yl)methylidene]-3-phenyl-1,3-thiazolidine-2,4-dione] | inhibited | inhibited | little to no effect | significantly inhibit | reduced | did not diminish | did not diminish | RVFV MP12 viral titers by plaque assay (RVFV MP12): significant decrease; wild-type RVFV viral titers by plaque assay (wild-type RVFV): significant decrease
9 | WIF-1 | no effect | dose-dependent reduction | no effect | no effect | unable to reduce infection | unable to reduce infection | unable to reduce infection | 
10 | DKK-1 (protein, UniProt O94907 32-266, looked up) Dickkopf-related protein 1: TLNSVLNSNAIKNLPPPLGGAAGHPGSAVSAAPGILYPGGNKYQTIDNYQPYPCAEDEECGTDEYCASPTRGGDAGVQICLACRKRRKRCMRHAMCCPGNYCKNGICVSSDQNHFRGEIEETITESFGNDHSTLDGYSRRTTLSSKMYHTKGQEGSVCLRSSDCASGLCCARHFWSKICKPVLKEGQVCTKHRRKGSHGLEIFQRCYCGEGLSCRIQKDHHQASNSSRLHTCQRH | no effect | dose-dependent reduction | no effect | no effect | unable to reduce infection | unable to reduce infection | unable to reduce infection | 
11 | Wnt3A (protein, UniProt P56704 19-352, looked up) Protein Wnt-3a: SYPIWWSLAVGPQYSSLGSQPILCASIPGLVPKQLRFCRNYVEIMPSVAEGIKIGIQECQHQFRGRRWNCTTVHDSLAIFGPVLDKATRESAFVHAIASAGVAFAVTRSCAEGTAAICGCSSRHQGSPGKGWKWGGCSEDIEFGGMVSREFADARENRPDARSAMNRHNNEAGRQAIASHMHLKCKCHGLSGSCEVKTCWWSQPDFRAIGDFLKDKYDSASEMVVEKHRESRGWVETLRPRYTYFKVPTERDLVYYEASPNFCEPNPETGSFGTRDRTCNVSSHGIDGCDLLCCGRGHNARAERRREKCRCVFHWCCYVSCQECTRVYDVHTCK |  |  |  |  |  |  |  | RVFV MP12-GFP viral infection after Wnt3A pre-treatment (RVFV MP12-GFP [7]): significantly enhanced; increase in RVFV MP12-GFP infection (RVFV MP12-GFP [7]): greater than 4.5 fold; VSV infection after Wnt3A pre-treatment (VSV [8]): remained unchanged; wild-type RVFV infection (number of plaques) [9]: enhanced
